Measurements from patent US20230056189A1, “COMPOSITIONS AND METHODS FOR TREATMENT OF PATHOLOGIC PAIN ASSOCIATED WITH MALIGNANT GROWTH DISORDER” (Duke University, priority 2020, published 2023).

What was measured:
[1] = test system: intracellular chloride ([Cl-]i) of primary cortical neurons; assay: Secondary screen: Clomeleon chloride imaging in cultured primary cortical neurons; assay type: cell-based, mouse; details: for Chloride [Cl—]i, value left of '=>': starting value before the arrow; for Chloride [Cl—]i, value right of '=>': value after the arrow (with compound)
Experimental: (§1) The primary screen encompassed three levels of LUC measurements. The first level of screening yielded a total of 137 compounds with cut-off RLU>125% LUC activity. These 137 compounds were subject to second round of screening, which was carried out in duplicate independent assays to yield the top 103 compounds sorted for highest RLU. The 103 compounds were then subjected to a third round of screening carried out in duplicate independent assays to yield the top 40 compounds which were again ranked. The best 22 of these 40 compounds (ranked for highest RLU activity) were subjected to secondary screening: cultured neurons were treated with the 22 compounds; RT-qPCR and Clomeleon imaging methodologies (Yeo et al., 2009, J Neurosci 29: 14652-14662) were used to determine effects of compounds on Kcc2 mRNA expression and [Cl-]i, respectively. Each compound was ranked based on composite scores from primary and secondary screening.
(§2) Chloride imaging of primary cultured cortical neurons was conducted as previously described (Kuner and Augustine, 2000, Neuron 27: 447-459; Liedtke et al., 2013, Small (Weinheim an der Bergstrasse, Germany) 9: 1066-1075; Yeo et al., 2009, J Neurosci 29: 14652-14662). A Clomeleon expression plasmid was transfected into primary cortical neurons by electroporation (Amaxa Nucleofector Device). Transfected neurons were verified by yellow fluorescent protein (YFP) fluorescence, and ratiometric images (excitation at λ=434 nm, dual emission at λ=485 and 535 nm; for resting chloride, six stable frames at […] were captured, which were averaged) were acquired using RATIOTOOL program. Calibration of Clomeleon signals (535 nm/485 nm emission ratio) was performed by using tributyltin-nigericin to establish a standard curve, which was then normalized for measured intraneuronal pH to take into account the pH sensitivity of Clomeleon.
(§3) 1057 compounds were screened and contained in two NCI libraries: NCI compound libraries Natural Products II and Mechanistic Diversity Set II (FIG. 1, Table 2), related to inhibition of growth of malignantly transformed cells. […] Iterative screening followed by measurements of Kcc2 mRNA (RT-qPCR) and intracellular chloride ([Cl-]i) (clomeleon chloride indicator protein) led to decreasing numbers of re confirmed hits, which eventually identified four (4) “winner” compounds listed in the bottom panel of FIG. 1.

[2] = test system: neuronal [Cl-]i; assay: Clomeleon [Cl-]i measurement in rat primary cortical neurons; assay type: cell-based; details: VU0240551 2.5 μM, both vehicle-treated and KP-treated rat neurons
Experimental: as §2
Results represent the average mRNA expression of multiple independent neuronal cultures [n=12 (control), n=4 (0.1 μM KP), n=3 (0.2 μM KP), n=10 (0.5 μM KP). *p<0.05, **p<0.01, ****p<0.0001, one-way ANOVA].
It is shown that KP enhanced Kcc2 gene expression and KCC2 chloride extrusion function with rather rapid kinetics within 3 h time frame.

[3] = test system: Kcc2 gene expression; assay: Composite ranking from primary and secondary screening; assay type: cell-based, mouse; details: for Total Score: sum of Luciferase, RT-qPCR and Clomeleon scores; for Top 2 Hits: winner = top 2 of each library by total score
Experimental: as §1, §3

[4] = test system: Kcc2 promoter; assay: Primary screen: luciferase (LUC) activity in primary cortical neurons from Kcc2-LUC transgenic mice; assay type: cell-based, mouse; details: rank score within compound library; compounds 100 nM for 48 h
Experimental: Cell suspension was plated at a density of 1×10^6 cells/ml onto 24-well tissue-culture dishes coated with poly-d-lysine.
LUC activity was then determined for each compound. Culture supernatant was removed and cells were lysed with 150 μl lysis buffer (Targeting Systems CA, USA cat. CLR1). LUC activity was measured with a RedLuciferase Assay kit (Targeting Systems cat. FLAR) according to the manufacturer's instructions. A Veritas microplate luminometer was used to measure luminescence; for each treatment triplicates of 40 μl cell lysates (from each 24-well tissue-culture dish) were used and 25 μl substrate was injected per well. […] Relative Light units (RLU) for each treatment was derived from Light Units (compound treatment)/vehicle treatment (0.5% DMSO).
The primary screen encompassed three levels of LUC measurements. […] Each compound was ranked based on composite scores from primary and secondary screening.

[5] = test system: Kcc2 mRNA; assay: Secondary screen: Kcc2 RT-qPCR in cultured primary cortical neurons; assay type: cell-based, mouse; details: rank score within compound library
Experimental: as §1, with “Each compound was ranked based on composite scores from primary and secondary screening.” left out
Total RNA was isolated from cultured cell samples using Directzol RNA miniprep kit (ZymoResearch). […] Gene expression was assessed by quantitative real-time PCR using 2×SYBR Green Master Mix (Qiagen) and a three-step cycling protocol (anneal at 60° C./elongate at 72° C., denature at 95° C.). […] The amount of target messenger RNA (mRNA) in the experimental group relative to that in the control was determined from the resulting fluorescence and threshold values (Ct) using the […] method. […] was used as a housekeeping gene. […]

[6] = test system: A375; assay: MTT cell viability assay; assay type: cell-based; details: KP 100 nM and/or paclitaxel 1 nM or 10 nM, 72 hours
Experimental: (§4) Two commonly used breast cancer cell lines (MCF7 and MDA MB-231) and one melanoma cell line (A375) were used in this study. 100 nM Kenpaullone (KP) and/or 1 nM or 10 nM paclitaxel (Taxol) were administered to the cell lines to test their impact on cell viability. Each bar represents an average of 6 experiments, and error bars represent SEM. Cell line maintenance and MTT cell viability assay were done according to Xiao et al. (2018, BMC Cancer, 18(1): 675). Cell viability was assessed after 72 hours.

[7] = test system: MCF7; assay: MTT cell viability assay; assay type: cell-based; details: KP 100 nM and/or paclitaxel 1 nM or 10 nM, 72 hours
Experimental: as §4

[8] = test system: MDA MB-231; assay: MTT cell viability assay; assay type: cell-based; details: KP 100 nM and/or paclitaxel 1 nM or 10 nM, 72 hours
Experimental: as §4

Row | Compound | Chloride [Cl—]i, value left of '=>' [1] [mM] | Chloride [Cl—]i, value right of '=>' [1] [mM] | Total Score [3] | other results
1 | C[C@@]12C(=O)OC(=O)[C@]1(C)[C@H]1CC[C@@H]2O1 [cantharidine] | 68 | 33 |  | 
2 | Cc1csc(NC(=O)CSc2ccc(-c3ccccc3)nn2)n1 [VU0240551] |  |  |  | [Cl-]i with add-on KCC2-transport blocker [2]: ≥ 120 mM
3 | CC(=O)Nc1ccc(-c2nc3ccccc3s2)cc1 [NSC33006, N-[4-(1,3-benzothiazol-2-yl)phenyl]acetamide] | 74 | 28 | 5 | Top 2 Hits [3]: winner
4 | CC(=O)C1CCCC(=O)/C=C/C(=O)O1 (stereo not shown) [NSC180515, 2-Acetyl-2,3,4,5-tetrahydrooxonine-6,9-dione] | 68 | 22 | 6 | Luciferase Score (triplicates) [4]: 4; RT-qPCR Score (triplicates) [5]: 1; Chloride reduction (%) [1]: 32%; Clomeleon Score (duplicates) ([1]; rank score within compound library): 1; Top 2 Hits [3]: winner
5 | Cc1ccc(NC(=O)c2cccc([N+](=O)[O-])c2O)c(C)c1 [NSC79456, n-(2,4-Dimethylphenyl)-2-hydroxy-3-nitrobenzamide] | 74 | 24 | 5 | Top 2 Hits [3]: winner
6 | CC(O)CCC(=O)c1ccoc1 (stereo not shown) [4-Ipomeanol] | 74 | 32 | 8 | 
7 | COc1cc2c3c(c4ccc(OC)c(OC)c4c2cc1OC)CN1CCC[C@H]1C3 [tylocrebrine] | 75 | 39 |  | 
8 | CC(=O)O[C@H]1C(=O)[C@@]2(C)[C@H]([C@H](OC(=O)c3ccccc3)[C@]3(O)C[C@H](OC(=O)[C@H](O)[C@@H](NC(=O)c4ccccc4)c4ccccc4)C(C)=C1C3(C)C)[C@]1(OC(C)=O)CO[C@@H]1C[C@@H]2O [paclitaxel] |  |  |  | cell viability (MTT) [6]: sensitive; cell viability (MTT) [7]: sensitive; cell viability (MTT) [8]: sensitive
9 | Cc1cc(-c2nc3ccccc3s2)ccc1N [4-(1,3-Benzothiazol-2-yl)-2-methylaniline] | 82 | 38 | 13 | 
10 | CC1(C)CCC[C@]2(C)C3=C(CC[C@@H]12)C(=O)OC3 [confertifoline] | 75 | 42 |  | 
11 | COc1ccc(C[C@H]2NC[C@H](O)[C@H]2OC(C)=O)cc1 [anisomycine] | 75 | 43 |  | 
12 | N=C1N=CN=C2C([C@@H]3O[C@H](CO)[C@@H](O)[C@H]3O)=CN=C12 [9-Deazaadenosine] | 82 | 40 | 11 | 
